These are literature values, as cited in patent US12708665B2, “Anti-IL-1β antibody therapy in arrhythmogenic cardiomyopathy (ACM)” (Beth Israel Deaconess Medical Center, Inc., priority 2019, dated 2026).

Data set [1] relates to in vitro and in vivo models of ACM. As to conditions: multiple in vitro and in vivo models of ACM, human iPSC-cardiac myocytes from ACM patients; cited from earlier work.
Data set [2] has as its system patients with coronary artery disease. As to conditions: cited from earlier work.

With `Cn1cc(C2=C(c3ccc(Cl)cc3Cl)C(=O)NC2=O)c2ccccc21` [SB216763], in data set [1], the “effect on ACM disease phenotype (arrhythmias, exercise-induced sudden death, myocyte injury and apoptosis, inflammation, contractile dysfunction)” value is reported as “prevent and/or reverse the full ACM disease phenotype”.
Take “monoclonal antibody against IL-1β: monoclonal antibody against IL-1β used in the CANTOS trial (ref. 36)”: the “infectious complications related to immunosuppression” value in data set [2] (in vivo) was “not associated with significant infectious complications”. Further, the “major adverse cardiac events” value in data set [2] (patients with coronary artery disease, CANTOS trial) was “significantly reduced”.
